Source: PubChem BioAssay (NCI)
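Results reflect a 48-hour exposure of cells in 96-well plates to compound at five concentrations. The concentration for 50% growth inhibition is given as GI50. At the TGI there is no net growth.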

Assays:
Assay in all cases: NCI anticancer screen, dose series, 48 h
HOP-62 NSCLC = tested on: HOP-62 NSCLC
SK-MEL-5 melanoma = tested on: SK-MEL-5 melanoma
UACC-62 melanoma = tested on: UACC-62 melanoma
LOX IMVI melanoma = tested on: LOX IMVI melanoma
A549 NSCLC = tested on: A549 NSCLC
A498 renal = tested on: A498 renal
SNB-19 CNS = tested on: SNB-19 CNS
SF-539 CNS = tested on: SF-539 CNS
UO-31 renal = tested on: UO-31 renal
NCI/ADR-RES ovarian = tested on: NCI/ADR-RES ovarian

Row | SMILES | GI50 (HOP-62 NSCLC) [µM] | TGI (HOP-62 NSCLC) [µM] | GI50 (SK-MEL-5 melanoma) [µM] | TGI (SK-MEL-5 melanoma) [µM] | GI50 (UACC-62 melanoma) [µM] | TGI (UACC-62 melanoma) [µM] | GI50 (LOX IMVI melanoma) [µM] | TGI (LOX IMVI melanoma) [µM] | GI50 (A549 NSCLC) [µM] | TGI (A549 NSCLC) [µM] | GI50 (A498 renal) [µM] | TGI (A498 renal) [µM] | TGI (SNB-19 CNS) [µM] | TGI (SF-539 CNS) [µM] | TGI (UO-31 renal) [µM] | TGI (NCI/ADR-RES ovarian) [µM] | GI50 (SNB-19 CNS) [µM] | GI50 (SF-539 CNS) [µM] | GI50 (NCI/ADR-RES ovarian) [µM] | GI50 (UO-31 renal) [µM]
1 | O=C([CH-]C(=O)c1ccccc1)c1ccccc1.O=C([CH-]C(=O)c1ccccc1)c1ccccc1.O=C([CH-]C(=O)c1ccccc1)c1ccccc1.[Cl-].[Zr+4] | 20.1 | 75.5 | 22.9 | 60.6 | 20.3 | 91.2 | 26.7 | > 100 | 33.9 | > 100 | 18.7 | 58.6 | – | – | – | – | – | – | – | –
2 | COc1ccc2c(c1)[n+](=O)c(C(=O)CC(=O)C(=O)Nc1cccc(C)c1C)c(C)n2[O-] | – | > 100 | – | > 100 | – | > 100 | – | > 100 | – | > 100 | – | – | > 100 | > 100 | > 100 | – | – | – | – | –
3 | CCN(CC)c1nc(NC2CCCCC2)c2nc(N(CC)CC)nc(NC3CCCCC3)c2n1 | – | > 100 | – | > 100 | – | > 100 | – | – | – | > 100 | – | > 100 | > 100 | > 100 | – | > 100 | – | – | – | –
4 | Cc1ccccc1N=Nc1c(-c2ccccc2)nn(C(=O)CC(=O)Nc2cccc(Cl)c2)c1-c1ccccc1 | – | > 31.6 | – | 24.9 | – | > 31.6 | – | 25.3 | – | – | – | 29.9 | > 100 | > 31.6 | > 31.6 | – | – | – | – | –
5 | Cc1cc2c(cc1CO)N1Cc3cc(C)c(CO)cc3N(C2)C1 | – | > 100 | – | > 100 | – | > 100 | – | > 100 | – | > 100 | – | – | > 100 | > 100 | – | – | – | – | – | –
6 | C=Cc1c(C)c2cc3[nH]c(cc4nc(cc5nc(cc1[nH]2)C(C)=C5CCC(=O)N(CC)CC)C(CCC(=O)N(CC)CC)=C4C)c(C)c3C=C | – | > 100 | – | > 100 | – | > 100 | – | > 100 | – | > 100 | – | – | – | > 100 | > 100 | – | – | – | – | –
7 | O=C(NC(=O)c1cn(CCN2CCN(C(=O)NCCCCCCNC(=O)N3CCN(CCn4cc(C(=O)NC(=O)OCc5ccccc5)c(=O)[nH]c4=O)CC3)CC2)c(=O)[nH]c1=O)OCc1ccccc1 | – | > 100 | – | > 100 | – | > 100 | – | > 100 | – | > 100 | – | – | > 100 | > 100 | > 100 | – | – | – | – | –
8 | O=C(/C(=N/Nc1ccccc1)c1ccc([N+](=O)[O-])cc1)c1ccc([N+](=O)[O-])cc1 | – | – | – | > 100 | – | > 100 | – | – | – | > 100 | – | – | > 100 | > 100 | > 100 | – | – | – | – | –
9 | CCC(C)(O)c1cn(-c2ccc(S(=O)(=O)O)cc2)nn1 (configuration not stated) | – | > 100 | – | > 100 | – | > 100 | – | > 100 | – | > 100 | – | > 100 | > 100 | > 100 | > 100 | – | – | – | – | –
10 | CC1(C)C(=O)C(=Cc2ccco2)C1=O | – | – | – | > 100 | – | > 100 | – | > 100 | – | > 100 | – | > 100 | – | > 100 | > 100 | – | – | – | – | –
11 | c1ccc(C2CC(c3ccc4ccccc4c3)=Nc3ccccc3S2)cc1 (configuration not stated) | – | 38.2 | – | 35.3 | – | 35.2 | – | 29.5 | – | 38.8 | – | 31.1 | 36.7 | 31.5 | 25.1 | – | – | – | – | –
12 | CCCCN1C(=O)/C(=c2\sc3n(c2=O)C2C(NN=3)N(CC)C(=O)N2CC)c2ccccc21 (configuration not stated) | 1.21 | 4.95 | – | – | 0.502 | 3.55 | – | – | – | – | 0.169 | 0.721 | 28.1 | 1.46 | – | – | 1.61 | 0.371 | – | –
13 | O=c1c2cccnc2ncn1CCCN1CCCC1 | – | > 100 | – | > 100 | – | > 100 | – | > 100 | – | > 100 | – | – | > 100 | > 100 | > 100 | – | – | – | – | –
14 | Cn1cncc1-c1c(F)cncc1NC(=O)c1c(N)nn2cc(F)cnc12 | 5.21 | > 100 | 1.23 | 2.48 | 2.22 | 6.9 | 0.238 | 10.4 | 2.27 | > 100 | 0.526 | 8.83 | > 100 | – | 60.5 | > 100 | 5.2 | – | 1.45 | 0.303
15 | CC(=O)OC1C(O[C@H]2CC[C@]34O[C@]35CC[C@]3(C)C(C6(C)CC[C@@H](C(C)(C)O)O6)[C@@H](O)CC3(C)[C@@H]5CC(OC3OC(CO)C(O)C(O)C3O)C4C2(C)C)OCC(O)C1O (some centres not stated) | – | > 100 | – | > 100 | – | > 100 | – | > 59.3 | – | > 100 | – | > 100 | > 100 | > 56.6 | > 100 | – | – | – | – | –
16 | COc1cc2c3c(c1OC)C(=O)C=C3N(S(=O)(=O)c1ccc(C)cc1)CC2 | – | > 100 | – | > 100 | – | > 100 | – | > 100 | – | > 100 | – | > 100 | > 100 | > 100 | > 100 | – | – | – | – | –
17 | C/C(CC(=O)Nc1ccc(NC(=O)C/C(C)=N\NC(N)=O)cc1)=N/NC(N)=O | – | > 100 | – | > 100 | – | > 100 | – | > 60.1 | – | > 100 | – | > 100 | > 100 | > 100 | > 100 | – | – | – | – | –
18 | C=C(CO)CC(/C=C(\C)CC/C=C(\C)CCl)OC(C)=O (configuration not stated) | – | > 100 | – | > 100 | – | > 100 | – | > 100 | – | > 100 | – | > 100 | > 100 | > 100 | > 100 | – | – | – | – | –
19 | CCCCCCCCCCOC(=O)c1cc[n+](C)cc1 | – | 30.6 | – | 33.6 | – | 34 | – | 32.6 | – | 31 | – | 36.9 | 30.4 | 29.8 | 30.3 | – | – | – | – | –
20 | O=C(N/C(=C/c1cccc([N+](=O)[O-])c1)c1nc2ccc(Cl)cc2[nH]1)c1ccccc1 | – | 62.5 | – | 12.7 | – | 33.5 | – | 58.3 | – | > 100 | – | 66.2 | > 100 | 12.5 | 17.2 | – | – | – | – | –
21 | Cc1nc(Sc2nc3ccc([N+](=O)[O-])cc3s2)sc1C | 3.81 | 14.2 | 1.67 | 4.58 | 1.22 | 3.49 | 0.221 | 0.932 | 10.4 | 22.7 | 1.59 | 9.23 | 21.9 | – | 4.17 | 5.45 | 8.41 | – | 1.63 | 1.49
